Laboratory results published in ChEMBL document CHEMBL1201862, “PubChem BioAssay data set” (2004).
Active and inactive are the calls of the source.

What was measured:
[1] = target: T1, Long-chain-fatty-acid--AMP ligase FadD28 (Mycobacterium tuberculosis, UniProt P9WQ59); assay: Fluorescence polarization aasay to screen for inhibitors that compete for the binding of FadD28 to a bisubstrate Measured in Biochemical System Using Plate Reader - 2147-01_Inhibitor_Dose_CherryPick_Activity.; format: functional, Mycobacterium tuberculosis H37Rv
T1 sequence (P9WQ59 whole entry): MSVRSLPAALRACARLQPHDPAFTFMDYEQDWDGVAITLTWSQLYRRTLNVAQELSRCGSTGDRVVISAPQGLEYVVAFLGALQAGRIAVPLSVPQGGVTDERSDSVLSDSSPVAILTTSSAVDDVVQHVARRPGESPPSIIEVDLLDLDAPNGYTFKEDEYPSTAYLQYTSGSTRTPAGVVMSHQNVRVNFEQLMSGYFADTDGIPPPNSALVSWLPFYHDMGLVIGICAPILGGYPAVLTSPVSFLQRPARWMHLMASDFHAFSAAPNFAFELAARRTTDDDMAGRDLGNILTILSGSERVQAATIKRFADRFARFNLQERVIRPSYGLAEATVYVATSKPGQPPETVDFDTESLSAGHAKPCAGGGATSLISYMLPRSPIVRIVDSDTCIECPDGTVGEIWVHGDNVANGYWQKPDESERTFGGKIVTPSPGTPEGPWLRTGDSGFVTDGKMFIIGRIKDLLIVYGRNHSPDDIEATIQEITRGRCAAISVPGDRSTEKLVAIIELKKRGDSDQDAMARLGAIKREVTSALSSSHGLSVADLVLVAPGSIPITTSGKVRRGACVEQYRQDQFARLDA

[2] = HeLa cell cytotoxicity, dose response, cytotoxicity control for MgcRacGAP inhibitor project (AID 624300); format: functional
[3] = target: T2, Rac GTPase-activating protein 1 (Homo sapiens, UniProt Q9H0H5); assay: MgcRacGAP GTPase-activating activity inhibitors, confirmation, biochemical, ADP Hunter fluorescence, primary and confirmatory (AID 624330); format: functional
T2 sequence (Q9H0H5 whole entry): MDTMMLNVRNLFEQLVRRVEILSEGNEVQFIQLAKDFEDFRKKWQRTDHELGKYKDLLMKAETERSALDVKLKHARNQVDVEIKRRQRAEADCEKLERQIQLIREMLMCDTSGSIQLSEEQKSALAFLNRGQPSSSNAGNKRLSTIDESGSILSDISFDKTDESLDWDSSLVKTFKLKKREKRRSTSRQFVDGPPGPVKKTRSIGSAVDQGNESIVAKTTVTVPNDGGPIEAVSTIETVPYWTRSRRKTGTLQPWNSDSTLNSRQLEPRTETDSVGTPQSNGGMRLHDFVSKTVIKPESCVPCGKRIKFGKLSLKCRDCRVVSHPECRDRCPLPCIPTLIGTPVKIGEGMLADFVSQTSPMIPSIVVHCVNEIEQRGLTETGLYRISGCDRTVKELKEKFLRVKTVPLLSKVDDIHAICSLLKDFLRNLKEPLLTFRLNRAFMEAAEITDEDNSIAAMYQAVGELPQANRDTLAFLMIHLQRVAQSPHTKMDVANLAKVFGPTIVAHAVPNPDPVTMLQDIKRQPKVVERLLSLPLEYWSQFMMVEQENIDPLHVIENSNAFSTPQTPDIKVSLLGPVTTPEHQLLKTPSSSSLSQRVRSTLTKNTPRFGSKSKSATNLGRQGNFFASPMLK

[4] = off-target signal loss in HeLa-CEM21 co-culture – HeLa F-luc CTL cells, cherry-picked, counter-screen for HIV-1 Env fusion inhibitor project, dose response (AID 652040); format: functional, cell-based;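 also: potency for signal decrease marking cytotoxic or nonspecific inhibition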
[5] = inhibitors of HIV Env-driven cell fusion, dose response, cherry-pick (AID 652057); format: functional, cell-based
[6] = ZM109 Env clade C HIV-1 fusion inhibitors, dose response, HeLa effector, CEM target cells, luciferase, cherry-pick (AID 652058); format: functional, cell-based
[7] = inhibitors of clade B AD8 Env fusion, dose response, cell-based, cherry-pick (AID 652062); format: functional;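 also: luciferase signal from cell-cell fusion driven by HIV-1 clade B AD8 Env; potency is for inhibitors of fusion seen as a drop in luminescence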
[8] = NIH-3T3 fibroblast cytotoxicity, dose response, cytotoxicity control, cell-based, fluorescence, Alamar Blue, secondary assay (AID 2327); format: functional;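 also: NIH-3T3 mouse fibroblasts cultured with fluconazole at 8 µg/mL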
[9] = C. albicans growth with fluconazole, confirmation, fluorescence, retest (AID 2467); format: functional, cell-based
[10] = target: T3, Short transient receptor potential channel 4 (Mus musculus, UniProt Q9QUQ5); assay: mouse TRPC4 channel inhibitors, dose response, cell-based, HEK293 TRPC4/mu-opioid, Fluo-4 calcium (AID 434942); format: functional;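 also: potency of inhibitors blocking the TRPC4 calcium response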
T3 sequence (Q9QUQ5 whole entry): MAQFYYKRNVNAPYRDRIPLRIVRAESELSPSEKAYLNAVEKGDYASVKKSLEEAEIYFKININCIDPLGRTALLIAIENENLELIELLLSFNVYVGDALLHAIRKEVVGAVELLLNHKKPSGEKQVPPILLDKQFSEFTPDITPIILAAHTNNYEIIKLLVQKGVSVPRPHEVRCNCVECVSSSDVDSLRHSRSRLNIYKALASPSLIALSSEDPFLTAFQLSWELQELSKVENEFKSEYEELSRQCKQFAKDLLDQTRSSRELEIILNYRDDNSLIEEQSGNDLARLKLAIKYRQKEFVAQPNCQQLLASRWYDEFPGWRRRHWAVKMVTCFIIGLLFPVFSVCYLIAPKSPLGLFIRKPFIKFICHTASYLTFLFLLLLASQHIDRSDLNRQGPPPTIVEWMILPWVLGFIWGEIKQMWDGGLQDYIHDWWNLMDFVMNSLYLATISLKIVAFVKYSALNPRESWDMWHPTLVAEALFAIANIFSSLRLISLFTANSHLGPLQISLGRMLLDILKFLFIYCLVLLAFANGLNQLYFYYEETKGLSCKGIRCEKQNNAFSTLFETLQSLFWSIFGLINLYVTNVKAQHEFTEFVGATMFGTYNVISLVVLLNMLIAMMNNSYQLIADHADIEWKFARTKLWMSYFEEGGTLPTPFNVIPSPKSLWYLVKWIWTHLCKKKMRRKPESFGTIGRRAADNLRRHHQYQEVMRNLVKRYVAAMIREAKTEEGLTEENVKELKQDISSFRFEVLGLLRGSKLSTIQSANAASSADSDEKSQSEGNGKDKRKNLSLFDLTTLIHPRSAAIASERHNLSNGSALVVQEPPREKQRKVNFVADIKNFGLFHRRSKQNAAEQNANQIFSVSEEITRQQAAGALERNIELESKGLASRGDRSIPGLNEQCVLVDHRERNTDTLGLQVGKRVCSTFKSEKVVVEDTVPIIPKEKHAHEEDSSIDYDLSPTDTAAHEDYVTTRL

Troponin, cardiac muscle = Troponin, cardiac muscle (Homo sapiens, UniProt P19429+P45379+P63316); assay: Fluorescence-based biochemical high throughput dose response assay for activators of the calcium sensitivity of cardiac Regulated Thin Filaments (RTF). [Related pubchem assays (depositor defined):AID493008, AID493018, AID504382, AID504383]; format: protein-complex assay
[11] = target: T4, Corticotropin-releasing factor receptor 2/Corticotropin-releasing factor-binding protein (Homo sapiens, UniProt P24387+Q13324); assay: Dose Response confirmation of uHTS hits for small molecule antagonists of the CRF-binding protein and CRF-R2 receptor complex.; format: functional; settings: read-out: IC50_Mean
T4 sequence (Q13324 whole entry): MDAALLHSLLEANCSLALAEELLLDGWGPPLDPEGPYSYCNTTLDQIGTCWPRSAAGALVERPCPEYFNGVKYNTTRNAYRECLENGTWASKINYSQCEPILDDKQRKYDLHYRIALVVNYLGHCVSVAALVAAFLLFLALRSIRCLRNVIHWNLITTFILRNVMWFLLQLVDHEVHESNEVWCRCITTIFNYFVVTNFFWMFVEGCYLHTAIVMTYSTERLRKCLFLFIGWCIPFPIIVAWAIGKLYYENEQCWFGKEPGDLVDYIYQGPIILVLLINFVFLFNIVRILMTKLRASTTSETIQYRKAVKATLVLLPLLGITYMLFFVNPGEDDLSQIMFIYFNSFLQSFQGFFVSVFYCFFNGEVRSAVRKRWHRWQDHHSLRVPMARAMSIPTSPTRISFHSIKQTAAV
T4 sequence (P24387 whole entry): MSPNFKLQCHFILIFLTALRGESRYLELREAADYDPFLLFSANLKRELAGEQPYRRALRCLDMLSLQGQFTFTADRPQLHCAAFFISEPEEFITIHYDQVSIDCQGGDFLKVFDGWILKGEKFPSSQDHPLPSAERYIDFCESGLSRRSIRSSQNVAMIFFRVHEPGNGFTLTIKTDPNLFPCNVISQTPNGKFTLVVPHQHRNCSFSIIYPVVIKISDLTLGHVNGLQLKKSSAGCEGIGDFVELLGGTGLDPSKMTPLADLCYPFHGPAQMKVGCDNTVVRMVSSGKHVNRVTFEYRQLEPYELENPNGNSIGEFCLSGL

[12] = target: T4, Corticotropin-releasing factor receptor 2/Corticotropin-releasing factor-binding protein; assay: activators of CRF receptor 2 with binding protein – uHTS hits, confirmation (AID 602473); format: functional; settings: read-out: EC50_Mean
[13] = CRF-BP/CRF-R2 complex antagonists, dose response, cell-based, uHTS hits, 384-well (AID 651639); format: functional, Homo sapiens; settings: read-out: IC50_Mean
[14] = THP-1 cell cytotoxicity, dose response, cytotoxicity control for non-replicating M. tuberculosis project (AID 489025); format: functional
[15] = Vero E6 cell cytotoxicity, dose response, cytotoxicity control for non-replicating M. tuberculosis project, secondary assay (AID 492998); format: functional, VeroE6; settings: Vero C1008
cells = format: functional
[16] = target: Nuclear receptor subfamily 5 group A member 2 (Homo sapiens, UniProt O00482); format: functional, cell-based;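 also: HEK293T cells transfected with LRH-1 and a StAR promoter luciferase reporter; potency for inhibitors that lower LRH-1 driven reporter light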
Steroidogenic factor 1 = Steroidogenic factor 1 (Homo sapiens, UniProt Q13285); assay: Counterscreen for inverse agonists of the liver receptor homolog-1 (LRH-1; NR5A2): Luminescence-based cell-based high throughput dose response assay to identify inverse agonists of the Steroidogenic Factor 1 Nuclear Receptor (SF1; NR5A1).; format: functional
[17] = StAR promoter reporter inhibition counter-screen, dose response, counter-screen for LRH-1 inverse agonist project, cell-based, luminescence, luciferase reporter (AID 651969); format: functional
Fatty acid synthase [18] = target: T5, Fatty acid synthase (Homo sapiens, UniProt P49327); assay: FAS thioesterase domain inhibitors, dose response, biochemical, endpoint fluorescence intensity, uHTS hits (AID 624327); format: functional;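 also: fluorescence from hydrolysis of an O-methyl fluorescein acyl ester substrate by the enzyme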
Fatty acid synthase [19] = target: T5, Fatty acid synthase; assay: FAS thioesterase domain inhibitors, dose response, biochemical, kinetic fluorescence intensity (AID 624326); format: functional;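 also: rate of fluorescence rise from hydrolysis of a fluorogenic O-methyl fluorescein ester substrate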
[20] = tested on: Streptococcus sp. 'group A'; assay: growth inhibition of control SK(-) GAS strain, dose response, counter-screen for streptokinase expression inhibitor project, luminescence, kanamycin, BacTiterGlo, confirmation (AID 1900); format: functional, organism-based
Streptococcus = assay: Group A Streptococcus viability loss, dose response, counter-screen for streptokinase expression inhibitor project, luminescence, BacTiterGlo (AID 1915); format: functional, organism-based;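 also: potency for reduction of bacterial viability or growth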
[21] = CEM21 lymphoblast cell cytotoxicity, dose response, cytotoxicity control for viral fusion inhibitor project, CellTiter-Glo luminescence, cherry-picked (AID 652042); format: functional, cell-based;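 also: potency for signal decrease meaning cytotoxicity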
Beta-galactosidase = Beta-galactosidase (Escherichia coli, UniProt Q8VNN2); assay: Dose response counterscreen for EBI2 assay utilizing the enzyme, b-galactosidase.; format: functional
Beta-galactosidase, sequence (Q8VNN2 whole entry): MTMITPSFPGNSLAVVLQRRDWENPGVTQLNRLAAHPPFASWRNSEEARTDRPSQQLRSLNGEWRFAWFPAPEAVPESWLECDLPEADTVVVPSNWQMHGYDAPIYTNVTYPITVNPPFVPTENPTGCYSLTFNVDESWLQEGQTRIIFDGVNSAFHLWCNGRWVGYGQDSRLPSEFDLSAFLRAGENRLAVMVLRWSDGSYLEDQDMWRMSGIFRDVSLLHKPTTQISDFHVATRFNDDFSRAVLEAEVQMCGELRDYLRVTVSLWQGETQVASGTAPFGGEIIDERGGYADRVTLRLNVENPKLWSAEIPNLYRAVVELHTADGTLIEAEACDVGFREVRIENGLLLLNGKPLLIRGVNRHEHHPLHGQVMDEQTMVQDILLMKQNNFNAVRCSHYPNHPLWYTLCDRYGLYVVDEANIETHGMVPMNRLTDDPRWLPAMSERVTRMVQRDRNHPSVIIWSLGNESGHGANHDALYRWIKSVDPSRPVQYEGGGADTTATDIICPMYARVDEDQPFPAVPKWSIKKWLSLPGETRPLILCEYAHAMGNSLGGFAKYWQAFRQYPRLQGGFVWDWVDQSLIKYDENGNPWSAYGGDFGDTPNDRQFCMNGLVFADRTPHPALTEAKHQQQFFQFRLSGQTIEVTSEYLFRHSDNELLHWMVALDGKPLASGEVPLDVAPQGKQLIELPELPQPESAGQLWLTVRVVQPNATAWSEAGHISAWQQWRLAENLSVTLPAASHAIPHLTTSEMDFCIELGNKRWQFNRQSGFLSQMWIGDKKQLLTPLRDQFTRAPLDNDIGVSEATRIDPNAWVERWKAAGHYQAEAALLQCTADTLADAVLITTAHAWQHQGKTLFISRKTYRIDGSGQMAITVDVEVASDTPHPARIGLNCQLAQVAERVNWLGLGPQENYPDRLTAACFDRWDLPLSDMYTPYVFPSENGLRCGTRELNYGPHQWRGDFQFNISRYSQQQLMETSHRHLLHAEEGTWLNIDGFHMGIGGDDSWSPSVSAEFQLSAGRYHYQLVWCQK

Steroidogenic factor 1, sequence (Q13285 whole entry): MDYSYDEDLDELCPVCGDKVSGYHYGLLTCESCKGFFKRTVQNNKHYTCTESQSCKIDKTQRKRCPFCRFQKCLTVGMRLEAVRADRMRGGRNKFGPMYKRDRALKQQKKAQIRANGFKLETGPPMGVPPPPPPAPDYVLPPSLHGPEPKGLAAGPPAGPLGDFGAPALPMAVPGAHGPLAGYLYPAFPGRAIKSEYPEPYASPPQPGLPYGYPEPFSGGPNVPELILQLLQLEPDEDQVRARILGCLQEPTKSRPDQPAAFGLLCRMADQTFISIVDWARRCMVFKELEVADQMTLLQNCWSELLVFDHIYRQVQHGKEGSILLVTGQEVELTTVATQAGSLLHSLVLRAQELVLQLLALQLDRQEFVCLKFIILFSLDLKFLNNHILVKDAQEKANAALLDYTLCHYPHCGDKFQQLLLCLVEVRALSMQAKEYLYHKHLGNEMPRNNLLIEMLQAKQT
Nuclear receptor subfamily 5 group A member 2, sequence (O00482 whole entry): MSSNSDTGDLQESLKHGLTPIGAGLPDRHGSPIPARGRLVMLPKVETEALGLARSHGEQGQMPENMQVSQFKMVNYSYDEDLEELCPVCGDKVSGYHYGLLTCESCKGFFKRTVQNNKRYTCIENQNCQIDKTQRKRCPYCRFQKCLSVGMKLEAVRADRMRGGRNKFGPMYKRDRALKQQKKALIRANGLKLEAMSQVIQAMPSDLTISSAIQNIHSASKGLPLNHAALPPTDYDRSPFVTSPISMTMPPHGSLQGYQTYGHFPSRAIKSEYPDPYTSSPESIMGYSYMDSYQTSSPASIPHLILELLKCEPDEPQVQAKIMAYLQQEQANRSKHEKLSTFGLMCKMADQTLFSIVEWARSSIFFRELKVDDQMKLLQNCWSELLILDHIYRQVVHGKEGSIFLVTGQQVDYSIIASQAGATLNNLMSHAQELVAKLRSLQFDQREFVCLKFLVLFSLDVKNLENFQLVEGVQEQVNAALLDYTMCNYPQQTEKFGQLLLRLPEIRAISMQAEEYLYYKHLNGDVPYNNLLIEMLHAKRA
T5 sequence (P49327 whole entry, the tested form may be a part): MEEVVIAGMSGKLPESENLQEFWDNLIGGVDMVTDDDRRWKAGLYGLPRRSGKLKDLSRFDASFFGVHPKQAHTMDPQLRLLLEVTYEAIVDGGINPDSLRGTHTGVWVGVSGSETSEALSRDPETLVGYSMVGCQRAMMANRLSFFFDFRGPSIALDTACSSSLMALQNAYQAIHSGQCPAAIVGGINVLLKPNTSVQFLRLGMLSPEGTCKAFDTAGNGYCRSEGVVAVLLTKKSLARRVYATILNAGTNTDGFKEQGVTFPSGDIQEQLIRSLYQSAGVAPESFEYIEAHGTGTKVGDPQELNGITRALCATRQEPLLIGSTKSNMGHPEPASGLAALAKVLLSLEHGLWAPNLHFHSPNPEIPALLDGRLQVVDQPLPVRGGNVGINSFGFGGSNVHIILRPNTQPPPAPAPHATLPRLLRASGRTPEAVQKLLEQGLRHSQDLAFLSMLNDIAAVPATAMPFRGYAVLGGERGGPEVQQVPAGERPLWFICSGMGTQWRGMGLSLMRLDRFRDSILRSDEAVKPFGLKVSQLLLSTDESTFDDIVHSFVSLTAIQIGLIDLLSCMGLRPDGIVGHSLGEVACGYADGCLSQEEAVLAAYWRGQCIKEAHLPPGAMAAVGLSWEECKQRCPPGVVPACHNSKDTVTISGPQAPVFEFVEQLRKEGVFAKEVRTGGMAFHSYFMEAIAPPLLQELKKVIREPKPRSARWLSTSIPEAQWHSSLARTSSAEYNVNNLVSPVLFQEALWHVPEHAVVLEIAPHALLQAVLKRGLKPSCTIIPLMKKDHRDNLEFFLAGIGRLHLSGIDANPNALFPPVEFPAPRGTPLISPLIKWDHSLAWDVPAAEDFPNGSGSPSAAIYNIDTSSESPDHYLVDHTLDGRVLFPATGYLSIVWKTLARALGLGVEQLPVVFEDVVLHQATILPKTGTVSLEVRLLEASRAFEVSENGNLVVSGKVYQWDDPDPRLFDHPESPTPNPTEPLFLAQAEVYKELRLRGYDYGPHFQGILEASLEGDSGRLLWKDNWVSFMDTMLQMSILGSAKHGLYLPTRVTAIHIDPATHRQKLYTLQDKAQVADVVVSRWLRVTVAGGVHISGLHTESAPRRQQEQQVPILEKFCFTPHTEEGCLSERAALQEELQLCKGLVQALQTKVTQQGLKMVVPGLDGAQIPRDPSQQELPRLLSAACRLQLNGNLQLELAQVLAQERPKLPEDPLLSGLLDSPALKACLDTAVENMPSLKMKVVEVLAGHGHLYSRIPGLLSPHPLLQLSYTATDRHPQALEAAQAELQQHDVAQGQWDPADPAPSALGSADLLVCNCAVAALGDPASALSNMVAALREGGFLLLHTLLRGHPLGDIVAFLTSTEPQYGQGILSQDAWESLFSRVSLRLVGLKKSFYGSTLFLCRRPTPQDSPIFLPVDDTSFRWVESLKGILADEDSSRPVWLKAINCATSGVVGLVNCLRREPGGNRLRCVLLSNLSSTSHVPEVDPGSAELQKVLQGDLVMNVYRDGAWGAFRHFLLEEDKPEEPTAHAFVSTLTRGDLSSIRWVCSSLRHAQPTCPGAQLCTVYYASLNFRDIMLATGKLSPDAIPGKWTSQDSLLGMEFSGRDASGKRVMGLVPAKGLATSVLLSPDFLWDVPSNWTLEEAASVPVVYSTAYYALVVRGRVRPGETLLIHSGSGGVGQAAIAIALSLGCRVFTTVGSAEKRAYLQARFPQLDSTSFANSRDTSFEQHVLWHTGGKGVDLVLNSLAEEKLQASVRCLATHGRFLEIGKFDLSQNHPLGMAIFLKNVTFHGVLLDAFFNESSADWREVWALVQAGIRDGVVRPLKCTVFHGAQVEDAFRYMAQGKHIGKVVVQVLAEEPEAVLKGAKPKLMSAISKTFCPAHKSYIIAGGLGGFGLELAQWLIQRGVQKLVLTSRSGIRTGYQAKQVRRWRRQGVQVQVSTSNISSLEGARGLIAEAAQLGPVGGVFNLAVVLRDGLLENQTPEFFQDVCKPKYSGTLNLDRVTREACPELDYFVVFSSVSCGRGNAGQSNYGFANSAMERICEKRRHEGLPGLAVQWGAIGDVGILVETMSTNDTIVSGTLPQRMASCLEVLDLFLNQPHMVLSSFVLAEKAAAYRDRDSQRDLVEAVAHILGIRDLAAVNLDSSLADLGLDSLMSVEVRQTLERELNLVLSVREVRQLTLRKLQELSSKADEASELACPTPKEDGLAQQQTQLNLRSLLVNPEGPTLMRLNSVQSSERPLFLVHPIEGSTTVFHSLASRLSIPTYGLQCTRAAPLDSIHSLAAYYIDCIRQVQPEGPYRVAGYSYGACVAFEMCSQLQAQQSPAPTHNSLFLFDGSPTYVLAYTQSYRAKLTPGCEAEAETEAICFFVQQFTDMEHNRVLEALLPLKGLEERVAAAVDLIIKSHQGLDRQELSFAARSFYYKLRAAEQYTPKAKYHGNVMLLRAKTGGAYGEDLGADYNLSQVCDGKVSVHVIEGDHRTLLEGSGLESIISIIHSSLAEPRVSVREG

## O=C(CN1C(=O)NC2(CCOc3ccccc32)C1=O)c1ccc(Br)cc1 (stereo unspecified)
[1]
  AC50: 98.9 µM (active)

## COc1cc(/C=N/NC(=S)NC2CC3CCC2C3)ccc1O (stereo unspecified)
[2]
  CC50: 100 µM (active)
[3]
  IC50: 48.8 µM (active)

## O=C(Nc1cccc(F)c1)c1cc(S(=O)(=O)N2CCC(C(=O)O)CC2)ccc1F
[4]
  AC50: 28.9 µM (active)

## COc1cc(/C=C2\C(=O)NN(c3ccc(C)cc3)C2=O)cc([N+](=O)[O-])c1O
[1]
  AC50: 86.9 µM (active)

## O=C(CN(Cc1ccccc1F)S(=O)(=O)c1ccc(Cl)cc1)NCCC1=CCCCC1
[5]
  AC50: 4.11 µM (active)
[6]
  AC50: 4.59 µM (active)
[4]
  AC50: 6.77 µM (active)
[7]
  AC50: 25.6 µM (active)

## O=C(O)c1ccc(NC(=S)NC(=O)c2ccc(-c3ccccc3)cc2)cc1
[8]
  EC50: > 150 µM (inactive)
[9]
  EC50: 1.28 µM (active)
[10]
  EC50: 4.73 µM (active)
Troponin, cardiac muscle
  EC50: > 71.5 µM (inactive)
[11]
  IC50: 6.04 µM (active)
[12]
  EC50: > 53 µM (inactive)
[13]
  IC50: 5.93 µM (active)

## Cc1onc(-c2ccccc2Cl)c1C(=O)ON=C(N)c1ccc([N+](=O)[O-])o1
[14]
  CC50: 17.9 µM (active)
[15]
  CC50: 14.9 µM (active)
cells
  IC50: 2.13 µM (active)
[16]
  IC50: 0.495 µM (active)
Steroidogenic factor 1
  IC50: 0.309 µM (active)
[17]
  IC50: 35.9 µM (inactive)

## CC1=C(O)C(=O)C(c2c(C)cc(C)c(Br)c2C)=C(O)C1=O
[1]
  AC50: 51.8 µM (active)
Fatty acid synthase [18]
  IC50: 10.8 µM (active)
Fatty acid synthase [19]
  IC50: 9.46 µM (active)

## Cc1onc(-c2ccccc2)c1C(=O)NC(=S)NNC(=O)c1ccc(O)cc1
[20]
  EC50: 0.547 µM (active)
Streptococcus
  EC50: 9.46 µM (active)
[21]
  AC50: 67.3 µM (active)
[7]
  AC50: 10.5 µM (active)

## CC(O)(c1ccc(F)c(F)c1)c1nc(-c2ccc(S(C)(=O)=O)cc2)cs1 (stereo unspecified)
[16]
  IC50: 11.3 µM (inactive)
Steroidogenic factor 1
  IC50: 1.91 µM (active)
[17]
  IC50: 35.8 µM (inactive)

## Cc1ccc2oc(=O)c3cnn(CC(=O)N(Cc4ccco4)C4CCCCC4)c3c2c1
Beta-galactosidase
  IC50: > 80 µM (inactive)

## Oc1nc(Nc2ccc3c(c2)OCCO3)nnc1Cc1ccccc1
[8]
  EC50: > 160 µM (inconclusive)
[9]
  EC50: > 38 µM (not active)
[16]
  IC50: 35.9 µM (inactive)
Steroidogenic factor 1
  IC50: 1.87 µM (active)
[17]
  IC50: 35.9 µM (inactive)

## Cc1ccc(NN=C(S)Nc2ccc(C(C)C)cc2)c(C)c1
Beta-galactosidase
  IC50: 66.1 µM (inactive)

## Cc1ccc(OCC(=O)N2CCN(Cc3ccc([N+](=O)[O-])cc3)CC2)cc1
[3]
  IC50: 163 µM (active)
Beta-galactosidase
  IC50: > 80 µM (inactive)
